Laboratory results: patent US20220409617A1, “Drug Formulations and Methods of Treatment for Metabolic Disorders” (The Regents of the University of California, priority 2019, published 2022)
Entries after “also recorded” stand apart in the source; their conditions may differ.

Assays:
AKT = conditions: cited from earlier work
[1] = tested on: mouse embryonic fibroblasts (MEFs); type: cell-based; conditions: 3 h pre-treatment then palmitate 250 μM 3 h, 893 5 μM, myriocin 10 μM, fumonisin B1 30 μM, NAV-2729 12.5 μM, YM201636 800 nM, celastrol 500 nM
Protocol: Mitochondrial morphology was assessed by examining citrate synthesis expression under a high resolution microscopy. Specifically, the aspect ratio, branch length and roundness of mitochondria was assessed (FIG. 1).
LSL-KrasG12D mouse embryonic fibroblasts (MEFs) with and without Cre-mediated deletion of the STOP cassette were obtained from David Tuveson (Cold Spring Harbor Laboratory, Cold Spring Harbor N.Y., USA) in 2000. p53^flox/flox MEFs were derived in house (2015) from C57BL/6 mice using standard techniques and immortalized by transient expression of Cre recombinase and deletion of p53. MEFs were cultured and maintained in DMEM with 10% FBS and 1% penicillin-streptomycin. […] Stock solution of palmitic acid (ACROS Organics, cat # AC129702500) was prepared at 100 mM in ethanol. Palmitate (250 μM) was conjugated to 1% (w/v) fatty-acid free bovine serum albumin (Sigma, A8806) in DMEM at 37° C. for 20 min. For all immunofluorescence assays, 8,000 MEFs were seeded into 8-chamber slides (Cellvis, cat # C8-1.5H-N) 12-16 h before treatment. Cells were pre-treated with sphingolipid-like compound 893 (5 μM in water), myriocin (10 μM in methanol), fumonisin-B1 (30 μM in DMSO), or celastrol (500 nM in DMSO) for 3 h followed by a 3 h treatment with BSA-conjugated palmitate mixture or BSA alone.

[2] = tested on: C16:0 ceramide generation (CerS6); experiment: C16:0 ceramide levels in palmitate-treated MEFs (UPLC-MS/MS); type: cell-based, mouse
Protocol: Plasma pharmacokinetic analysis of sphingolipid-like compound 893 was performed by Pharmaron Corporation (Beijing, China). C16:0 ceramide levels were quantified in cells using the method described in (T. Kasumov, et al., Anal. Biochem. 401: 154-161, 2010, the disclosure of which is incorporated herein by reference) with minor modifications. Cultured cells were washed twice in PBS and scraped into 250 μL of HPLC grade water and flash frozen until time of analysis. On the day of analysis, samples were thawed, and an aliquot used for protein quantification. For C16:0 ceramide levels in mouse liver, 25 mg of tissue was homogenized in 1 ml of ice-cold PBS using a mechanical probe homogenizer (VWR, Radnor, Pa.), protein levels quantified, and 50 μl of the homogenate diluted with 150 μl HPLC-grade water for C16:0 ceramide analysis. Fifty ng of C17:0 ceramide prepared in ethanol (#22532, Cayman Chemical, Ann Arbor, Mich.) was added into 200 μL of the thawed cell suspension or liver homogenate as an internal standard to control for varying extraction efficiency; 750 μL of an ice-cold 1:2 chloroform/methanol mixture was then added. Samples were sonicated for 30 min and phase separation induced by the addition of 250 μL each of chloroform and HPLC-grade water. Samples were centrifuged at 4° C. for 10 min and the lower lipid phase transferred to a clean tube. The remaining protein and aqueous layers were re-extracted with an additional 500 μL of chloroform. Lipid phases were combined and then dried under vacuum. Dried extract was re-constituted in 100% acetonitrile immediately before analysis. Samples were analyzed by ultra-performance liquid chromatography tandem mass spectrometry (UPLC-MS/MS) using a Waters Micromass Quattro Premier XE equipped with a Waters ACQUITY BEH C4 column (Waters Corp.). Samples were resolved starting at 60% mobile phase A (10 mM ammonium acetate and 0.05% formic acid in water) to 98% mobile phase B (60:40 acetonitrile:isopropanol) over 3 min with a linear gradient, held at 98% B for 1 min, then the column was equilibrated with 60% A for 1 min. The mass spectrometer was operated in positive ion mode with the following parameters: cone voltage 20 V, source temperature 125° C., desolvation temperature 400° C. Ion transition channels for MS/MS were 538→264 for C16:0 ceramide and 552→264 for C17:0 ceramide, both with a dwell time of 285 ms. Standard curves prepared from C16:0 ceramide (#860516, Avanti Polar Lipids, Alabaster, Ala.) dissolved in ethanol were used for quantitation and were linear from 4.1 nM-1,000 nM, with an R^2 of 0.98 or greater.
3T3-L1 cells were maintained in DMEM with 10% FBS and 1% penicillin-streptomycin until induced to differentiate. […]

CCCCCCCCc1ccc([C@H]2CCN[C@@H]2CO)cc1.Cl [compound 893]
Effect on AKT activity (AKT): does not reduce AKT activity
Protection from palmitate-induced mitochondrial fragmentation (aspect ratio, branch length, roundness) [1]: robust protection from both ceramide- and palmitate-induced mitochondrial fragmentation; also recorded: preserved a tubular, branched mitochondrial network in palmitate-treated cells
Palmitate-induced C16:0 ceramide production ([2]; MEFs, 3 h pre-treatment (893 5 μM, myriocin 10 μM, fumonisin B1 30 μM) then palmitate 250 μM 3 h): failed to block C16:0 ceramide generation; also recorded: without blocking palmitate-induced ceramide production
CerS6 inhibition ([2]; inferred from C16:0 ceramide generation in palmitate-treated cells): did not inhibit CerS6
